Measurements from PMC10071493 (ACS chemical neuroscience, 2021).
pKd: −log10 of the molar value.

Target: MC-I from the bovine heart (mitochondrial complex I) (Bos taurus, UniProt P25708)
Assay: microscale thermophoresis, label-free
Format: binding

Chain of MC-I from the bovine heart (mitochondrial complex I) (P25708 21-464, one chain of several): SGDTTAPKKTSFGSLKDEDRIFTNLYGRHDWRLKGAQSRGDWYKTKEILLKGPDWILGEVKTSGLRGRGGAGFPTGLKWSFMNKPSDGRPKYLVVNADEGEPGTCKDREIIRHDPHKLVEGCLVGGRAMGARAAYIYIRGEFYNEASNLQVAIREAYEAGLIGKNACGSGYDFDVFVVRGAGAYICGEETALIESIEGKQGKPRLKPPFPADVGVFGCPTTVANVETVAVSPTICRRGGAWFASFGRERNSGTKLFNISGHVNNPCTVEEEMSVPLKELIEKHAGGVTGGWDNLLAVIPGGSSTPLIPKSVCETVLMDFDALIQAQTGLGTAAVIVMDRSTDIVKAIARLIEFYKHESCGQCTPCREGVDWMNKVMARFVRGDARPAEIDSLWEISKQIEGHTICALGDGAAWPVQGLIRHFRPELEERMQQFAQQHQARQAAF

COc1ccc2[nH]cc(CCNC(=O)CC(=O)CCc3ccc(F)cc3)c2c1 [compound 2, 5-(4-Fluorophenyl)-N-(2-(5-methoxy-1H-indol-3-yl)ethyl)-3-oxo-pentanamide]
pKd: ~6.30
